# Experimental data reported in patent publication US20260049072A1, “HETEROCYCLIC COMPOUND FOR INDUCING DEGRADATION OF MUTANT KRAS PROTEIN” (Astellas Pharma Inc., priority 2022, published 2026).
# Like-named read-outs stand apart in the source and are kept apart here.
# What was measured:
# RAS G12V = target: T1, RAS G12V (Homo sapiens, UniProt P01116, G12V); assay: RAS G12V degradation activity, Cell ELISA, PA-TU-8902; assay type: cell-based; details: PA-TU-8902 cells, 24 hours; for DC50: 100% = Example compound 17 at 1 μM, read-out: DC50 (RAS G12V 50% degradation value)
# T1 construct: host or cells: PA-TU-8902 human pancreatic cancer cells
# Protocol: Test Example 1-1: Evaluation of RAS G12V Degradation Activity on Human KRAS G12V Mutant-Positive Pancreatic Cancer Line PA-TU-8902
# The RAS G12V degradation activities of subject compounds were evaluated by measuring the expression levels of RAS G12V by a Cell ELISA method.
# PA-TU-8902 cells (DSMZ, ACC 179) were seeded at 36 μL per well on a 384-well plate (from Greiner bio-one) to give 1.5×10^4 cells per well. As for the cell culture conditions, DMEM medium (from Sigma-Aldrich) containing 10% fetal bovine serum (from Cytiva) was used in the presence of 5% CO2 at 37° C.
# The next day, the subject compounds (10 points having final concentrations in the range of 3 μM to 0.1 nM), Example compound 17 of a final concentration of 1 μM as a positive control and dimethyl sulfoxide (DMSO), which was the solvent for the subject compounds, as a negative control were diluted 100-fold with a fresh medium and were each added at 4 μL per well, followed by culturing for 24 hours.
# The next day, the culture supernatant was removed, and a 4% paraformaldehyde phosphate buffer solution (from FUJIFILM Wako) was added at 20 μL per well. The plate was allowed to stand for 30 minutes at room temperature to thus immobilize the cells. Then, the supernatant was removed, and 0.1% Triton X-100 (from Amersham Biosciences)-containing Phosphate buffered saline (PBS) was added at 20 μL per well. After allowing the plate to stand at room temperature for 10 minutes, the supernatant was removed, and the wells were washed twice in total by adding PBS at 25 μL per well and removing the supernatant. The washing operations below were performed in the same manner. Next, the supernatant was removed, and 0.5% sodium dodecyl sulfate (SDS; from ThermoFisher Scientific)-containing PBS was added at 20 μL per well. After allowing the plate to stand at room temperature for 10 minutes, the plate was centrifuged to remove the supernatant. After washing with PBS, the supernatant was removed by centrifugation, and a blocking solution (PVDF Blocking Reagent for Can Get Signal; from TOYOBO) was added at 20 μL per well. After allowing the plate to stand for 30 minutes at room temperature, the supernatant was removed by centrifugation, and a solution obtained by diluting an anti-Ras (G12V Mutant Specific) antibody (Ras (G12V Mutant Specific) (D2H12) Rabbit mAb; from Cell Signaling Technology; 500-fold dilution) and an anti-3-actin antibody (Anti-beta Actin antibody; from Abcam; 5,000-fold dilution) with Can Get Signal Solution 2 (from TOYOBO) was added at 15 μL per well as primary antibodies. The plate was allowed to stand overnight at 4° C.
# The next day, the supernatant was removed by centrifugation, and the plate was washed with PBS. The supernatant was removed by centrifugation, and a solution obtained by diluting an anti-rabbit IgG antibody (IRDye 800CW Goat anti-Rabbit IgG; from LI-COR Biosciences) and an anti-mouse IgG antibody (IRDye 680RD Donkey anti-Mouse IgG; from LI-COR Biosciences) 1,000-fold with Can Get Signal Solution 2 was added at 15 μL per well as secondary antibodies. After allowing the plate to stand at room temperature for an hour, the supernatant was removed by centrifugation, and the plate was washed with PBS. After removing the supernatant, the plate was dried as it was with air at room temperature for two hours or more, and the 700-nm and 800-nm fluorescent signals were measured with Aerius (from LI-COR Biosciences).
# With the RAS G12V signaling value at the time of addition of DMSO corrected with the signaling value of 3-actin taken as 0% and with the RAS G12V signaling value at the time of addition of Example compound 17 of a final concentration of 1 μM taken as 100%, the RAS G12V degradation rates were calculated. The 50% degradation values (DC50) were calculated by Sigmoid-Emax model nonlinear regression analysis.
# PA-TU-8902 cells = assay: Non-anchorage-dependent cell growth inhibition (spheroid 3D culture), PA-TU-8902; assay type: cell-based, human; details: Homo sapiens, PaTu 8902, 144 h, read-out: PA-TU-8902 IC50
# Protocol: Test Example 3: Evaluation of Non-Anchorage-Dependent Cell Growth Inhibitory Activity on Human KRAS G12V Mutant-Positive Pancreatic Cancer Line PA-TU-8902, Human KRAS G12D Mutant-Positive Pancreatic Cancer Line AsPC-1 or Human KRAS G12C Mutant-Positive Pancreatic Cancer Line MIA PaCa-2
# The non-anchorage-dependent cell growth inhibitory activities of subject compounds were evaluated by spheroid 3D cell culture.
# PA-TU-8902 cells, AsPC-1 cells or MIA PaCa-2 cells (RIKEN BRC, RCB2094) were seeded at 36 µL/well on a low-cell-adhesive round bottom 384-well plate (Prime Surface: from Sumitomo Bakelite) to give 5×10^2 cells per well. The PA-TU-8902 cells were under the same conditions as in Test Example 1-1, and the AsPC-1 cells were under the same conditions as in Test Example 1-2. For the MIA PaCa-2 cells, RPMI-1640 medium containing 10% fetal bovine serum was used in the presence of 5% CO2 at 37° C.
# The next day, the subject compounds (6-9 points having final concentrations in the range of 3 μM to 0.3 nM) and DMSO, which was the solvent for the subject compounds, as a negative control were diluted 100-fold with a fresh medium and were each added at 4 μL per well. After culturing in the presence of 5% CO2 at 37° C. for six days, CellTiter-Glo 2.0 (from Promega) was added at 20 μL per well. After stirring with a plate mixer (from FINEPCR) at normal temperature for an hour, the luminescent signals were measured with ARVO X3 (from PerkinElmer).
# With the signaling value in treatment with DMSO taken as 0% inhibition and with the signaling value in the medium alone without cells taken as 100% inhibition, the 50% inhibition values (IC50) were calculated by Sigmoid-Emax model nonlinear regression analysis.
# [1] = KRAS G12V mutant-positive, 3D spheroid, six days, CellTiter-Glo 2.0
# T1 sequence (P01116 1-188 isoform P01116-2 G12V): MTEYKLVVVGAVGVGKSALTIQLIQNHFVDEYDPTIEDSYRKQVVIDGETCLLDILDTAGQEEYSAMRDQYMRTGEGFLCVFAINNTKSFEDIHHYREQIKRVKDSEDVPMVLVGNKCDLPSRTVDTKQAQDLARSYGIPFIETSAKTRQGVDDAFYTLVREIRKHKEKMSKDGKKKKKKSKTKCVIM
SMILES,DC50 (RAS G12V),"Dmax (RAS G12V; PaTu 8902, RAS G12V, read-out: Dmax (degradation rate at the concentration with highest degradation activity))",IC50 (PA-TU-8902 cells; [1]),IC50 (PA-TU-8902 cells)
"CO[C@@H](C)COc1nc(OC2CN(C(=O)NCCN(C)C)C2)c2cc(C3CC3)c(-c3c(C)c(F)cc4[nH]ncc34)c(OCc3ccc(-c4cn([C@H](C(=O)N5C[C@H](O)C[C@H]5C(=O)N[C@@H](CO)c5ccc(-c6scnc6C)cc5)C(C)C)nn4)cc3)c2n1 (atropisomer, axis not shown) [Example 17]",41 nM,,46 nM,
"CNCCNC(=O)N1CC(Oc2nc(OC[C@H](C)OC)nc3c(OCc4ccc(-c5cn([C@H](C(=O)N6C[C@H](O)C[C@H]6C(=O)N[C@@H](CO)c6ccc(-c7scnc7C)cc6)C(C)C)nn5)cc4)c(-c4c(C)c(F)cc5[nH]ncc45)c(C4CC4)cc23)C1 (atropisomer, axis not shown) [Example 18]",69 nM,,69 nM,
"CO[C@@H](C)COc1nc(N(C)[C@H]2CCN(C(=O)NCCN(C)C)C2)c2cc(C3CC3)c(-c3c(C)c(F)cc4[nH]ncc34)c(OCc3ccc(-c4cn([C@H](C(=O)N5C[C@H](O)C[C@H]5C(=O)N[C@@H](CO)c5ccc(-c6scnc6C)cc5)C(C)C)nn4)cc3)c2n1 (atropisomer, axis not shown) [Example 19]",26 nM,,58 nM,
"CO[C@@H](C)COc1nc(N2CC(C#N)C2)c2cc(C3CC3)c(-c3c(C)c(F)cc4[nH]ncc34)c(OCc3ccc(-c4cn([C@H](C(=O)N5C[C@H](O)C[C@H]5C(=O)N[C@@H](CO)c5ccc(-c6scnc6C)cc5)C(C)C)nn4)cc3)c2n1 (atropisomer, axis not shown) [Example 20]",48 nM,,63 nM,
"CO[C@@H](C)COc1nc(N2CCOCC2)c2cc(C3CC3)c(-c3c(C)c(F)cc4[nH]ncc34)c(OCc3ccc(-c4cn([C@H](C(=O)N5C[C@H](O)C[C@H]5C(=O)N[C@@H](CO)c5ccc(-c6scnc6C)cc5)C(C)C)nn4)cc3)c2n1 (atropisomer, axis not shown) [Example 21]",35 nM,,60 nM,
"CO[C@@H](C)COc1cc(OC2CN(C(=O)C3CN(C)C3)C2)c2cc(C3CC3)c(-c3c(C)c(F)cc4[nH]ncc34)c(OCc3ccc(-c4cn([C@H](C(=O)N5C[C@H](O)C[C@H]5C(=O)N[C@@H](CO)c5ccc(-n6cncn6)cc5)C(C)C)nn4)cc3)c2n1 (atropisomer, axis not shown) [Example 42]",30 nM,,,32 nM

# The next lines start with results.
DC50 (RAS G12V),"Dmax (RAS G12V; PaTu 8902, RAS G12V, read-out: Dmax (degradation rate at the concentration with highest degradation activity))",SMILES,IC50 (PA-TU-8902 cells; [1]),IC50 (PA-TU-8902 cells)
45 nM,,"CO[C@@H](C)COc1nc(NC2CN(C(=O)O[C@H]3C[C@@H](N(C)C)C3)C2)c2cc(C3CC3)c(-c3c(C)c(F)cc4[nH]ncc34)c(OCc3ccc(-c4cn([C@H](C(=O)N5C[C@H](O)C[C@H]5C(=O)N[C@@H](CO)c5ccc(N6CCOC6=O)cc5)C(C)C)nn4)cc3)c2n1 (atropisomer, axis not shown) [Example 4]",72 nM,
21 nM,,"COC(C)(C)COc1cc(OC2CN(C(=O)N3CC(CN(C)C)C3)C2)c2cc(C3CC3)c(-c3c(C)c(F)cc4[nH]ncc34)c(OCc3ccc(-c4cn([C@H](C(=O)N5C[C@H](O)C[C@H]5C(=O)N[C@@H](CO)c5ccc(-n6cncn6)cc5)C(C)C)nn4)cc3)c2n1 (atropisomer, axis not shown) [Example 9]",53 nM,
112 nM,62%,"CO[C@@H](C)COc1nc(N[C@H]2C[C@H](OCCN(C)C)C2)c2cc(C3CC3)c(-c3c(C)c(F)cc4[nH]ncc34)c(OCc3ccc(-c4cn([C@H](C(=O)N5C[C@H](O)C[C@H]5C(=O)N[C@@H](CO)c5ccc(-c6scnc6C)cc5)C(C)C)nn4)cc3)c2n1 (atropisomer, axis not shown) [Example 23]",182 nM,
14 nM,,"CO[C@@H](C)COc1nc(NC2CN(C(=O)N3CC(CN(C)C)C3)C2)c2cc(C3CC3)c(-c3c(C)c(F)cc4[nH]ncc34)c(OCc3ccc(-c4cn([C@H](C(=O)N5C[C@H](O)C[C@H]5C(=O)N[C@@H](CO)c5ccc(-c6scnc6C)cc5)C(C)C)nn4)cc3)c2n1 (atropisomer, axis not shown) [Example 25]",41 nM,
19 nM,,"CO[C@@H](C)COc1nc(NC2CN(C(=S)N3CC(CN(C)C)C3)C2)c2cc(C3CC3)c(-c3c(C)c(F)cc4[nH]ncc34)c(OCc3ccc(-c4cn([C@H](C(=O)N5C[C@H](O)C[C@H]5C(=O)N[C@@H](CO)c5ccc(-n6cncn6)cc5)C(C)C)nn4)cc3)c2n1 (atropisomer, axis not shown) [Example 26]",41 nM,
31 nM,,"CO[C@@H](C)COc1nc(NC2CN(C(=O)O[C@H]3C[C@@H](N(C)C)C3)C2)c2cc(C3CC3)c(-c3c(C)c(F)cc4[nH]ncc34)c(OCc3ccc(-c4cn([C@H](C(=O)N5C[C@H](O)C[C@H]5C(=O)N[C@@H](CO)c5ccc(-c6ocnc6C)cc5)C(C)C)nn4)cc3)c2n1 (atropisomer, axis not shown; (M)) [Example 1, (1s,3R)-3-(dimethylamino)cyclobutyl 3-({(7M)-6-cyclopropyl-7-(6-fluoro-5-methyl-1H-indazol-4-yl)-8-{[4-(1-{(2S)-1-[(2S,4R)-4-hydroxy-2-({(1R)-2-hydroxy-1-[4-(4-methyl-1,3-oxazol-5-yl)phenyl]ethyl}carbamoyl)pyrrolidin-1-yl]-3-methyl-1-oxobutan-2-yl}-1H-1,2,3-triazol-4-yl)phenyl]methoxy}-2-[(2S)-2-methoxypropoxy]quinazolin-4-yl}amino)azetidine-1-carboxylate]",57 nM,
